# Source: patent US6737383B1, “Herbicidal oxadiazolidines” (priority 1999, dated 2004)
# Experiments:
# blackgrass = assay: Test B pre/postemergence blackgrass; format: in vivo, Alopecurus myosuroides
# Procedure, shortened: (§1)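 Response is a visual 0-to-10 score relative to untreated plants, where 0 means no effect and 10 means complete control, taken twelve to sixteen days after application. Treatments went onto soil at planting and onto foliage of 1- to 4-leaf plants, using a surfactant-containing non-phytotoxic solvent.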
# surinam grass = assay: Test B pre/postemergence surinam grass; format: in vivo, Brachiaria decumbens
# Procedure, shortened: as §1
# cocklebur = assay: Test B pre/postemergence cocklebur; format: in vivo, Xanthium strumarium
# Procedure, shortened: as §1
# corn = assay: Test B pre/postemergence corn; format: in vivo, Zea mays
# Procedure, shortened: as §1
# crabgrass = assay: Test B pre/postemergence crabgrass; format: in vivo, Digitaria sanguinalis
# Procedure, shortened: as §1
# giant foxtail = assay: Test B pre/postemergence giant foxtail; format: in vivo, Setaria faberii
# Procedure, shortened: as §1
# pigweed = assay: Test B pre/postemergence pigweed; format: in vivo, Amaranthus retroflexus
# Procedure, shortened: as §1
# rape = assay: Test B pre/postemergence rape; format: in vivo, Brassica napus
# Procedure, shortened: as §1
# soybean = assay: Test B pre/postemergence soybean; format: in vivo, Glycine max
# Procedure, shortened: as §1
# sugar beet = assay: Test B pre/postemergence sugar beet; format: in vivo, Beta vulgaris
# Procedure, shortened: as §1
# wheat = assay: Test B pre/postemergence wheat; format: in vivo, Triticum aestivum
# Procedure, shortened: as §1
# purple nutsedge = assay: Test B pre/postemergence purple nutsedge; format: in vivo, Cyperus rotundus
# Procedure, shortened: as §1
# rice = assay: Test B flood test rice; format: in vivo, Oryza sativa
# Procedure, shortened: (§2)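 Read-out is a visual response score from 0 (no effect) to 10 (complete control), assigned by comparison with untreated controls. Treatment was applied at the 2-leaf stage, and plants stayed in the greenhouse for twelve to sixteen days before scoring.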
# smallflower flatsedge = assay: Test B flood test smallflower flatsedge; format: in vivo, Cyperus difformis
# Procedure, shortened: as §2
# duck salad = assay: Test B flood test duck salad; format: in vivo, Heteranthera limosa
# Procedure, shortened: as §2
# bamyardgrass = assay: Test B flood test barnyardgrass; format: in vivo, Echinochloa crus-galli
# Procedure, shortened: as §2
# [1] = Preemergence, Rate 62 g/ha, scale of 0 to 10 where 0 is no effect and 10 is complete control
# [2] = Preemergence, Rate 250 g/ha, scale of 0 to 10 where 0 is no effect and 10 is complete control
# [3] = Preemergence, Rate 500 g/ha, scale of 0 to 10 where 0 is no effect and 10 is complete control
# [4] = Rate 62 g/ha, Postemergence, scale 0 to 10 (0 no effect, 10 complete control)
# [5] = Rate 125 g/ha, Postemergence, scale of 0 to 10 where 0 is no effect and 10 is complete control
# [6] = Rate 250 g/ha, Postemergence, scale of 0 to 10 where 0 is no effect and 10 is complete control
# [7] = Rate 500 g/ha, Postemergence, scale 0 to 10, 0 no effect, 10 complete control
# [8] = Rate 62 g/ha, headed Pre-emergence (flood test species), scale 0 to 10 (0 no effect, 10 complete control)
# [9] = Rate 125 g/ha, Pre-emergence, flood test species, scale 0 to 10 where 0 is no effect and 10 is complete control
# [10] = Rate 250 g/ha, Pre-emergence, flood-test species, scale 0 to 10, 0 is no effect, 10 is complete control
# [11] = Rate 500 g/ha, Pre-emergence, flood test species, scale 0 to 10 (0 no effect, 10 complete control)
smiles,measurement,setting,value
CCN(C(=O)n1oc(=O)n(Cc2ccco2)c1=O)C1CCCCC1 [Compound 312],Blackgrass plant response rating,blackgrass; [1],0
same,Blackgrass plant response rating (0 to 10 scale),"blackgrass; Preemergence, Rate 125 g/ha",0
same,Blackgrass plant response rating,blackgrass; [2],0
same,Blackgrass plant response rating,blackgrass; [3],0
same,Blackgrass plant response rating,blackgrass; [4],0
same,Blackgrass plant response rating,blackgrass; [5],0
same,"Plant response rating, Blackgrass",blackgrass; [6],0
same,Blackgrass plant response rating,blackgrass; [7],0
same,B. signalgrass plant response rating,surinam grass; [1],0
same,"B. signalgrass plant response rating (0 to 10 scale, 0 is no effect, 10 is complete control)","surinam grass; Preemergence, Rate 125 g/ha",0
same,B. signalgrass plant response rating,surinam grass; [2],0
same,B. signalgrass plant response rating,surinam grass; [3],0
same,B. signalgrass plant response rating,surinam grass; [4],0
same,B. signalgrass plant response rating,surinam grass; [5],0
same,"Plant response rating, B. signalgrass",surinam grass; [6],0
same,B. signalgrass plant response rating,surinam grass; [7],0
same,Cocklebur plant response rating,cocklebur; [1],0
same,Cocklebur plant response rating (0 to 10 scale),"cocklebur; Preemergence, Rate 125 g/ha",0
same,Cocklebur plant response rating,cocklebur; [2],0
same,Cocklebur plant response rating,cocklebur; [3],0
same,Cocklebur plant response rating,cocklebur; [4],0
same,Cocklebur plant response rating,cocklebur; [5],0
same,"Plant response rating, Cocklebur",cocklebur; [6],0
same,Cocklebur plant response rating,cocklebur; [7],0
same,Corn plant response rating,corn; [1],0
same,Corn plant response rating (0 to 10 scale),"corn; Preemergence, Rate 125 g/ha",0
same,Corn plant response rating,corn; [2],0
same,Corn plant response rating,corn; [3],0
same,Corn plant response rating,corn; [4],0
same,Corn plant response rating,corn; [5],0
same,"Plant response rating, Corn",corn; [6],0
same,Corn plant response rating,corn; [7],0
same,Crabgrass plant response rating,crabgrass; [1],0
same,Crabgrass plant response rating (0 to 10 scale),"crabgrass; Preemergence, Rate 125 g/ha",0
same,Crabgrass plant response rating,crabgrass; [2],0
same,Crabgrass plant response rating,crabgrass; [3],0
same,Crabgrass plant response rating,crabgrass; [4],0
same,Crabgrass plant response rating,crabgrass; [5],0
same,"Plant response rating, Crabgrass",crabgrass; [6],0
same,Giant foxtail plant response rating,giant foxtail; [1],0
same,Giant foxtail plant response rating (0 to 10 scale),"giant foxtail; Preemergence, Rate 125 g/ha",0
same,Giant foxtail plant response rating,giant foxtail; [2],0
same,Giant foxtail plant response rating,giant foxtail; [3],0
same,Giant foxtail plant response rating,giant foxtail; [4],0
same,Giant foxtail plant response rating,giant foxtail; [5],0
same,"Plant response rating, Giant foxtail",giant foxtail; [6],0
same,Redroot pigweed plant response rating,pigweed; [1],0
same,Redroot pigweed plant response rating (0 to 10 scale),"pigweed; Preemergence, Rate 125 g/ha",0
same,Redroot pigweed plant response rating,pigweed; [2],0
same,Redroot pigweed plant response rating,pigweed; [3],0
same,Redroot pigweed plant response rating,pigweed; [4],0
same,Redroot pigweed plant response rating,pigweed; [5],0
same,"Plant response rating, Redroot pigweed",pigweed; [6],0
same,Rape plant response rating,rape; [1],0
same,Rape plant response rating (0 to 10 scale),"rape; Preemergence, Rate 125 g/ha",0
same,Rape plant response rating,rape; [2],0
same,Rape plant response rating,rape; [3],0
same,Rape plant response rating,rape; [4],0
same,Rape plant response rating,rape; [5],0
same,"Plant response rating, Rape",rape; [6],0
same,Soybean plant response rating,soybean; [1],0
same,Soybean plant response rating (0 to 10 scale),"soybean; Preemergence, Rate 125 g/ha",0
same,Soybean plant response rating,soybean; [2],0
same,Soybean plant response rating,soybean; [3],0
same,Soybean plant response rating,soybean; [4],2
same,Soybean plant response rating,soybean; [5],2
same,"Plant response rating, Soybean",soybean; [6],3
same,Sugarbeets plant response rating,sugar beet; [1],0
same,Sugarbeets plant response rating (0 to 10 scale),"sugar beet; Preemergence, Rate 125 g/ha",0
same,Sugarbeets plant response rating,sugar beet; [2],0
same,Sugarbeets plant response rating,sugar beet; [3],0
same,Sugarbeets plant response rating,sugar beet; [4],0
same,Sugarbeets plant response rating,sugar beet; [5],0
same,"Plant response rating, Sugarbeets",sugar beet; [6],0
same,Wheat plant response rating,wheat; [1],0
same,Wheat plant response rating (0 to 10 scale),"wheat; Preemergence, Rate 125 g/ha",0
same,Wheat plant response rating,wheat; [2],0
same,Wheat plant response rating,wheat; [3],0
same,Wheat plant response rating,wheat; [4],0
same,Wheat plant response rating,wheat; [5],0
same,"Plant response rating, Wheat",wheat; [6],0
same,Nutsedge plant response rating,purple nutsedge; [1],0
same,Nutsedge plant response rating (0 to 10 scale),"purple nutsedge; Preemergence, Rate 125 g/ha",0
same,Nutsedge plant response rating,purple nutsedge; [2],0
same,Nutsedge plant response rating,purple nutsedge; [3],0
same,Nutsedge plant response rating,purple nutsedge; [4],0
same,Nutsedge plant response rating,purple nutsedge; [5],0
same,"Plant response rating, Nutsedge",purple nutsedge; [6],0
same,Rice plant response rating,rice; [8],0
same,Rice plant response rating,rice; [9],0
same,Rice plant response rating,rice; [10],0
same,Rice plant response rating,rice; [11],0
same,S. Flatsedge plant response rating,smallflower flatsedge; [8],0
same,S. Flatsedge plant response rating,smallflower flatsedge; [9],0
same,S. Flatsedge plant response rating,smallflower flatsedge; [10],0
same,S. Flatsedge plant response rating,smallflower flatsedge; [11],0
same,Ducksalad plant response rating,duck salad; [8],0
same,Ducksalad plant response rating,duck salad; [9],0
same,Ducksalad plant response rating,duck salad; [10],0
same,Ducksalad plant response rating,duck salad; [11],0
same,Barnyardgrass plant response rating,bamyardgrass; [8],0
same,Barnyardgrass plant response rating,bamyardgrass; [9],0
same,Barnyardgrass plant response rating,bamyardgrass; [10],0
same,Barnyardgrass plant response rating,bamyardgrass; [11],0
